Results reported in patent US20230293469A1, “NOVEL PHARMACEUTICAL COMPOSITIONS” (NEUROPRO THERAPEUTICS, INC., priority 2020, published 2023).
Blank lines part the entries; values can stand above or below the compound they belong to.

Columns and labels:
[1] = Oral dose PK of NPT2042 in dog (AUC for absolute bioavailability); type: in vivo; settings: dog
Procedure: Assays were performed to determine absolute bioavailability of NPT2042 in two species: dog and rat. The calculation of absolute bioavailability depends on four inputs: the areas under the curves (AUC) for oral and IV, and the oral and IV doses.
Testing was conducted to determine AUCs for an oral dose in dog.
Two dogs were each dosed 30 mg/kg NPT2042 orally, on two different days.

Rat Microsomes = assay: Metabolite screening of NPT-2042 in rat microsomes; type: in vitro ADME; settings: NPT-2042 10 uM, microsomes 1 mg/mL, 1 hour, NADPH regenerating system
Procedure: (§1) Incubation of Test Compound in Microsomes • 1. Compound final concentration: 10 uM. • 2. Microsomes concentration 1 mg/mL. • 3. Incubate for 1 hour, with an NADPH regenerating system. • 4. 0.5 mL of incubation mixture at 0 min and 1 hour, mixed with 0.5 mL of acetonitrile. • 5. Vortex, and centrifuge at 13200 rpm for 10 min. • 6. Supernatant was transferred to a clean vial for LCMS analysis NADPH regenerating system (cofactor; consisting of NADP [0.340 mg/mL], G6P [1.56 mg/mL], and G6PDH [0.4 U/mL] solutions) LC-MS/MS Method: • HPLC Column: Agilent, Polaris 3 […], 150×2.0 mm (S/N: 533819), made in Netherlands. • Guard Column: Agilent, MonoChrom 3 C18 MetaGuard, 10×2.0 mm (S/N: 556145) • Column temperature: 40° C. • Mobile Phase A: 5 mM ammonium format in water (Optima) • Mobile Phase B: acetonitrile (Optima) • Flow rate: 0.2 mL/min • Gradient (Table on right) • MS: Thermo Q Exactive Plus.

Dog Microsomes = assay: Metabolite screening of NPT-2042 in dog microsomes; type: in vitro ADME; settings: NPT-2042 10 uM, microsomes 1 mg/mL, 1 hour, NADPH regenerating system
Procedure: as §1

Human Microsomes = assay: Metabolite screening of NPT-2042 in human microsomes; type: in vitro ADME; settings: NPT-2042 10 uM, microsomes 1 mg/mL, 1 hour, NADPH regenerating system
Procedure: as §1

Microsomes = assay: Proposed metabolite structures and biotransformation pathways (rat, dog, human microsomes); type: in vitro ADME; settings: for Proposed Biotransformation Pathway: metabolite of NPT-2042 in microsomes
Procedure: Incubation of Test Compound in Microsomes • 1. Compound final concentration: 10 uM. • 2. Microsomes concentration 1 mg/mL. • 3. Incubate for 1 hour, with an NADPH regenerating system. • 4. 0.5 mL of incubation mixture at 0 min and 1 hour, mixed with 0.5 mL of acetonitrile. • 5. Vortex, and centrifuge at 13200 rpm for 10 min. • 6. Supernatant was transferred to a clean vial for LCMS analysis NADPH regenerating system (cofactor; consisting of NADP [0.340 mg/mL], G6P [1.56 mg/mL], and G6PDH [0.4 U/mL] solutions)
LC-MS/MS Method: • HPLC Column: Agilent, Polaris 3 C18-A, 150×2.0 mm (S/N: 533819), made in Netherlands. • Guard Column: Agilent, MonoChrom 3 C18 MetaGuard, 10×2.0 mm (S/N: 556145) • Column temperature: 40° C. • Mobile Phase A: 5 mM ammonium format in water (Optima) • Mobile Phase B: acetonitrile (Optima) • Flow rate: 0.2 mL/min • Gradient (Table on right) • MS: Thermo Q Exactive Plus.
Summary of Proposed Metabolite Structures and Biotransformation Pathway

[2] = elderly, population-based control study; cited from earlier work
[3] = dose level 30 mg/kg NPT2042, Table 4
[4] = dose level 30 mg/kg NPT2042, Table 5

Bumetanide concentration, Time 0.50 h [1, 3]: BQL
Bumetanide concentration, Time 1.00 h [1, 3]: BQL
Bumetanide concentration, Time 2.00 h [1, 3]: BQL
Bumetanide concentration, Time 4.00 h [1, 3]: BQL
Bumetanide concentration, Time 6.00 h [1, 3]: BQL
Bumetanide concentration, Time 8.00 h [1, 3]: BQL
Bumetanide concentration, Time 12.00 h [1, 3]: BQL
Bumetanide concentration, Time 24.00 h [1, 3]: BQL
Bumetanide concentration, Time 0.50 h [1, 4]: BQL
Bumetanide concentration, Time 1.00 h [1, 4]: BQL
Bumetanide concentration, Time 2.00 h [1, 4]: BQL
Bumetanide concentration, Time 4.00 h [1, 4]: BQL
Bumetanide concentration, Time 6.00 h [1, 4]: BQL
Bumetanide concentration, Time 8.00 h [1, 4]: BQL
Bumetanide concentration, Time 12.00 h [1, 4]: BQL
Bumetanide concentration, Time 24.00 h [1, 4]: BQL
SMILES: CCCCNc1cc(C(=O)O)cc(S(N)(=O)=O)c1Oc1ccccc1 [Bumetanide, bumetanide, reference compound]

SMILES: Nc1cc(C(=O)N(Cc2ccccc2)Cc2ccccc2)cc(S(N)(=O)=O)c1Oc1ccccc1 [Example M4]
Rat Mic (MS Intensity) (Rat Microsomes): 6.53E+07
Dog Mic (MS Intensity) (Dog Microsomes): 3.11E+07
Human Mic (MS Intensity) (Human Microsomes): 2.52E+07
Proposed Biotransformation Pathway (Microsomes): De-alkylation

SMILES: Nc1cc(C(=O)NCc2ccccc2)cc(S(N)(=O)=O)c1Oc1ccccc1 [Example M1]
Rat Mic (MS Intensity) (Rat Microsomes): 1.28E+07
Dog Mic (MS Intensity) (Dog Microsomes): 2.95E+06
Human Mic (MS Intensity) (Human Microsomes): 1.42E+06
Proposed Biotransformation Pathway (Microsomes): De-alkylations

SMILES: CCCCNc1cc(C(=O)NCc2ccccc2)cc(S(N)(=O)=O)c1Oc1ccccc1 [Example M6]
Rat Mic (MS Intensity) (Rat Microsomes): 7.96E+07
Dog Mic (MS Intensity) (Dog Microsomes): 4.12E+07
Human Mic (MS Intensity) (Human Microsomes): 3.25E+07
Proposed Biotransformation Pathway (Microsomes): De-alkylation

SMILES: NS(=O)(=O)c1cc(C(=O)O)c(NCc2ccco2)cc1Cl [furosemide]
Protective factor for the development of epilepsy [2]: 39%

Metabolism of positive control (Microsomes; microsome incubation): showed Phase I metabolism
SMILES: O=C(O)Cc1ccccc1Nc1c(Cl)cccc1Cl [diclofenac, reference compound]
